In ChEMBL document CHEMBL1201861, “Genomics of Drug Sensitity in Cancer screening data, Wellcome Trust Sanger Institute”:

Columns and labels:
HCT-15 = test: cells; assay type: functional, cell-based; conditions: Homo sapiens;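 also: cell viability readout, IC50 reflecting suppression of HCT-15 cell growth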
Description: SANGER: Inhibition of human HCT-15 cell growth in a cell viability assay.

KYSE-180 = test: cells; assay type: functional, cell-based; conditions: Homo sapiens;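 also: growth inhibition of KYSE-180 cells, read out with a cell viability assay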
Description: SANGER: Inhibition of human KYSE-180 cell growth in a cell viability assay.

SK-LU-1 = test: cells; assay type: functional, cell-based; conditions: Homo sapiens;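 also: cell viability assay measuring growth inhibition of human SK-LU-1 cells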
Description: SANGER: Inhibition of human SK-LU-1 cell growth in a cell viability assay.

MG-63 = test: cells; assay type: functional, cell-based; conditions: Homo sapiens;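 also: growth inhibition of human MG-63 cells, read out with a cell viability assay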
Description: SANGER: Inhibition of human MG-63 cell growth in a cell viability assay.

KYSE-140 = test: cells; assay type: functional, cell-based; conditions: Homo sapiens;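 also: cell viability assay measuring growth inhibition in human KYSE-140 cells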
Description: SANGER: Inhibition of human KYSE-140 cell growth in a cell viability assay.

NCI-H2009 = test: cells; assay type: functional, cell-based; conditions: Homo sapiens;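 also: cell viability assay measuring inhibition of NCI-H2009 cell growth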
Description: SANGER: Inhibition of human NCI-H2009 cell growth in a cell viability assay.

SW1088 = test: cells; assay type: functional, cell-based; conditions: Homo sapiens;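 also: growth inhibition of human SW1088 cells, read out by a cell viability assay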
Description: SANGER: Inhibition of human SW1088 cell growth in a cell viability assay.

SNU-387 = test: cells; assay type: functional, cell-based; conditions: Homo sapiens
Description: SANGER: Inhibition of human SNU-387 cell growth in a cell viability assay.

ME-180 = test: cells; assay type: functional, cell-based; conditions: Homo sapiens;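 also: cell viability assay measuring growth inhibition of ME-180 cells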
Description: SANGER: Inhibition of human ME-180 cell growth in a cell viability assay.

SAOS-2 = test: cells; assay type: functional, cell-based; conditions: Homo sapiens;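 also: growth inhibition of human Saos-2 cells determined by a cell viability assay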
Description: SANGER: Inhibition of human Saos-2 cell growth in a cell viability assay.

NCI-H358 = test: cells; assay type: functional, cell-based; conditions: Homo sapiens;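 also: growth inhibition of NCI-H358 human cells, read out with a cell viability assay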
Description: SANGER: Inhibition of human NCI-H358 cell growth in a cell viability assay.

KOSC-2 = test: cells; assay type: functional, cell-based; conditions: Homo sapiens;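 also: growth inhibition of KOSC-2 cells, read out by a cell viability assay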
Description: SANGER: Inhibition of human KOSC-2 cell growth in a cell viability assay.

OVCAR-8 = test: cells; assay type: functional, cell-based; conditions: Homo sapiens;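 also: growth inhibition of human OVCAR-8 cells, read out by a cell viability assay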
Description: SANGER: Inhibition of human OVCAR-8 cell growth in a cell viability assay.

NCI-H1993 = test: cells; assay type: functional, cell-based; conditions: Homo sapiens;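 also: growth inhibition of the cancer cell line, assessed with a cell viability assay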
Description: SANGER: Inhibition of human NCI-H1993 cell growth in a cell viability assay.

NCI-H2342 = test: cells; assay type: functional, cell-based; conditions: Homo sapiens;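 also: growth inhibition of the cancer cell line, determined with a cell viability assay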
Description: SANGER: Inhibition of human NCI-H2342 cell growth in a cell viability assay.

AU565 = test: cells; assay type: functional, cell-based; conditions: Homo sapiens;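 also: cell viability assay measuring growth inhibition of human AU565 cells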
Description: SANGER: Inhibition of human AU565 cell growth in a cell viability assay.

Capan-2 = test: cells; assay type: functional, cell-based; conditions: Homo sapiens;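 also: Capan-2 cell growth inhibition, read out with a viability assay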
Description: SANGER: Inhibition of human Capan-2 cell growth in a cell viability assay.

TCC-SUP = test: cells; assay type: functional, cell-based; conditions: Homo sapiens;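 also: growth inhibition of TCC-SUP cells, read out with a cell viability assay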
Description: SANGER: Inhibition of human TCCSUP cell growth in a cell viability assay.

NCI-H1755 = test: cells; assay type: functional, cell-based; conditions: Homo sapiens;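 also: cell viability readout used to measure growth inhibition of NCI-H1755 cells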
Description: SANGER: Inhibition of human NCI-H1755 cell growth in a cell viability assay.

T98G = test: cells; assay type: functional, cell-based; conditions: Homo sapiens;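 also: growth inhibition of T98G cells, read out by a cell viability assay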
Description: SANGER: Inhibition of human T98G cell growth in a cell viability assay.

KYSE-450 = test: cells; assay type: functional, cell-based; conditions: Homo sapiens;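 also: cell growth inhibition measured by a viability assay in human KYSE-450 cells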
Description: SANGER: Inhibition of human KYSE-450 cell growth in a cell viability assay.

CHL-1 = test: cells; assay type: functional, cell-based; conditions: Homo sapiens;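 also: cell growth inhibition, read out with a cell viability assay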
Description: SANGER: Inhibition of human CHL-1 cell growth in a cell viability assay.

HT55 = test: cells; assay type: functional, cell-based; conditions: Homo sapiens;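 also: cell viability readout measuring growth inhibition of human HT55 cells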
Description: SANGER: Inhibition of human HT55 cell growth in a cell viability assay.

JEG-3 = test: cells; assay type: functional, cell-based; conditions: Homo sapiens;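 also: growth inhibition of human JEG-3 cells, read out with a cell viability assay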
Description: SANGER: Inhibition of human JEG-3 cell growth in a cell viability assay.

HT-1080 = test: cells; assay type: functional, cell-based; conditions: Homo sapiens
Description: SANGER: Inhibition of human HT-1080 cell growth in a cell viability assay.

COLO-792 = test: cells; assay type: functional, cell-based; conditions: Homo sapiens
Description: SANGER: Inhibition of human COLO-792 cell growth in a cell viability assay.

YKG-1 = test: cells; assay type: functional, cell-based; conditions: Homo sapiens;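 also: cell growth inhibition, read out with a viability assay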
Description: SANGER: Inhibition of human YKG-1 cell growth in a cell viability assay.

SK-HEP1 = test: cells; assay type: functional, cell-based, SK-HEP-1; conditions: Homo sapiens;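 also: cell viability readout used to quantify reduction in proliferation of human SK-HEP-1 cells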
Description: SANGER: Inhibition of human SK-HEP-1 cell growth in a cell viability assay.

MFE-280 = test: cells; assay type: functional, cell-based; conditions: Homo sapiens;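 also: growth inhibition of MFE-280 cells, determined with a cell viability readout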
Description: SANGER: Inhibition of human MFE-280 cell growth in a cell viability assay.

CAL-62 = test: cells; assay type: functional, cell-based; conditions: Homo sapiens;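 also: growth inhibition of CAL-62 cells, read out with a cell viability assay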
Description: SANGER: Inhibition of human CAL-62 cell growth in a cell viability assay.

MKN-1 = test: cells; assay type: functional, cell-based; conditions: Homo sapiens;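 also: growth inhibition of human MKN1 cells, read out by a cell viability measurement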
Description: SANGER: Inhibition of human MKN1 cell growth in a cell viability assay.

A673 = test: cells; assay type: functional, cell-based; conditions: Homo sapiens;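 also: growth inhibition of human A673 cells, read out through a cell viability assay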
Description: SANGER: Inhibition of human A673 cell growth in a cell viability assay.

OAW-28 = test: cells; assay type: functional, cell-based; conditions: Homo sapiens;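 also: growth inhibition of OAW-28 cells, read out with a cell viability assay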
Description: SANGER: Inhibition of human OAW-28 cell growth in a cell viability assay.

Huh-7 = test: cells; assay type: functional, cell-based; conditions: Homo sapiens;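 also: HuH-7 cell growth inhibition, read out with a cell viability assay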
Description: SANGER: Inhibition of human HuH-7 cell growth in a cell viability assay.

MKN-28 = test: cells; assay type: functional, cell-based; conditions: Homo sapiens;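 also: cell viability assay read-out, IC50 reflects suppression of growth of human MKN-28 cells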
Description: SANGER: Inhibition of human MKN28 cell growth in a cell viability assay.

NCI-H2170 = test: cells; assay type: functional, cell-based; conditions: Homo sapiens;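 also: cell viability assay measuring growth inhibition of human NCI-H2170 cancer cells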
Description: SANGER: Inhibition of human NCI-H2170 cell growth in a cell viability assay.

EW-22 = test: cells; assay type: functional, cell-based; conditions: Homo sapiens;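 also: growth inhibition of the EW-22 cell line, measured with a cell viability readout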
Description: SANGER: Inhibition of human EW-22 cell growth in a cell viability assay.

P12-Ichikawa = test: cells; assay type: functional, cell-based; conditions: Homo sapiens
KP-4 = test: cells; assay type: functional, cell-based; conditions: Homo sapiens;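 also: human KP-4 cells, with growth inhibition read out through a cell viability assay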
Description: SANGER: Inhibition of human KP-4 cell growth in a cell viability assay.

OVCAR-3 = test: cells; assay type: functional, cell-based; conditions: Homo sapiens;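 also: growth inhibition of human OVCAR-3 cells, determined by a cell viability assay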
Description: SANGER: Inhibition of human OVCAR-3 cell growth in a cell viability assay.

HT-3 = test: cells; assay type: functional, cell-based; conditions: Homo sapiens;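 also: growth inhibition measured with a cell viability readout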
Description: SANGER: Inhibition of human HT-3 cell growth in a cell viability assay.

UMUC3 = test: cells; assay type: functional, cell-based; conditions: Homo sapiens;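 also: growth inhibition of human UM-UC-3 cells, read out with a cell viability assay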
Description: SANGER: Inhibition of human UM-UC-3 cell growth in a cell viability assay.

MKN-45 = test: cells; assay type: functional, cell-based; conditions: Homo sapiens;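 also: growth inhibition of human MKN-45 cells, measured with a cell viability assay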
Description: SANGER: Inhibition of human MKN45 cell growth in a cell viability assay.

SW1783 = test: cells; assay type: functional, cell-based; conditions: Homo sapiens
Description: SANGER: Inhibition of human SW1783 cell growth in a cell viability assay.

KYSE-270 = test: cells; assay type: functional, cell-based; conditions: Homo sapiens;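 also: cell growth inhibition measured with a viability assay in the human KYSE-270 line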
Description: SANGER: Inhibition of human KYSE-270 cell growth in a cell viability assay.

647-V = test: cells; assay type: functional, cell-based; conditions: Homo sapiens;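 also: growth inhibition of 647-V cells, read out with a cell viability assay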
Description: SANGER: Inhibition of human 647-V cell growth in a cell viability assay.

NCI-H596 = test: cells; assay type: functional, cell-based; conditions: Homo sapiens;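 also: growth inhibition of NCI-H596 cells, read out with a cell viability assay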
Description: SANGER: Inhibition of human NCI-H596 cell growth in a cell viability assay.

BFTC-909 = test: cells; assay type: functional, cell-based; conditions: Homo sapiens
Description: SANGER: Inhibition of human BFTC-909 cell growth in a cell viability assay.

SW1417 = test: cells; assay type: functional, cell-based; conditions: Homo sapiens;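 also: growth inhibition of human SW1417 cells, read out with a cell viability assay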
Description: SANGER: Inhibition of human SW1417 cell growth in a cell viability assay.

RT-112 = test: cells; assay type: functional, cell-based; conditions: Homo sapiens
Description: SANGER: Inhibition of human RT-112 cell growth in a cell viability assay.

NCI-H1563 = test: cells; assay type: functional, cell-based; conditions: Homo sapiens;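 also: growth inhibition of human NCI-H1563 cells, read out with a cell viability assay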
Description: SANGER: Inhibition of human NCI-H1563 cell growth in a cell viability assay.

COR-L279 = test: SANGER: Inhibition of human COR-L279 cell growth in a cell viability assay.; assay type: functional, cell-based
LU-165 = test: cells; assay type: functional, cell-based; conditions: Homo sapiens
Description: SANGER: Inhibition of human LU-165 cell growth in a cell viability assay.

TUR = test: cells; assay type: functional, cell-based; conditions: Homo sapiens;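 also: growth inhibition of human TUR cells, read out with a cell viability assay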
Description: SANGER: Inhibition of human TUR cell growth in a cell viability assay.

SU-DHL-1 = test: SANGER: Inhibition of human SU-DHL-1 cell growth in a cell viability assay.; assay type: functional, cell-based
EVSA-T = test: cells; assay type: functional, cell-based; conditions: Homo sapiens;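 also: growth inhibition of EVSA-T cells, read out with a cell viability assay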
Description: SANGER: Inhibition of human EVSA-T cell growth in a cell viability assay.

NCI-H2196 = test: cells; assay type: functional, cell-based; conditions: Homo sapiens;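 also: cell viability assay used as the readout of growth inhibition in NCI-H2196 cells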
Description: SANGER: Inhibition of human NCI-H2196 cell growth in a cell viability assay.

SIG-M5 = test: cells; assay type: functional, cell-based; conditions: Homo sapiens;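 also: cell viability assay read-out, measuring how strongly growth of cultured human SIG-M5 cells is inhibited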
Description: SANGER: Inhibition of human SIG-M5 cell growth in a cell viability assay.

NCI-H64 = test: cells; assay type: functional, cell-based; conditions: Homo sapiens;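 also: growth inhibition of NCI-H64 cells, read out with a cell viability assay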
Description: SANGER: Inhibition of human NCI-H64 cell growth in a cell viability assay.

SIMA = test: cells; assay type: functional, cell-based; conditions: Homo sapiens
Description: SANGER: Inhibition of human SIMA cell growth in a cell viability assay.

NB1 = test: cells; assay type: functional, cell-based; conditions: Homo sapiens
Description: SANGER: Inhibition of human NB1 cell growth in a cell viability assay.

MONO-MAC-6 = test: cells; assay type: functional, cell-based; conditions: Homo sapiens
Description: SANGER: Inhibition of human MONO-MAC-6 cell growth in a cell viability assay.

TE-441-T = test: cells; assay type: functional, cell-based; conditions: Homo sapiens
Description: SANGER: Inhibition of human TE-441-T cell growth in a cell viability assay.

SCC-3 = test: cells; assay type: functional, cell-based; conditions: Homo sapiens
Description: SANGER: Inhibition of human SCC-3 cell growth in a cell viability assay.

CC[C@]1(O)C[C@@H]2CN(CCc3c([nH]c4ccccc34)[C@@](C(=O)OC)(c3cc4c(cc3OC)N(C)[C@H]3[C@@](O)(C(=O)OC)[C@H](OC(C)=O)[C@]5(CC)C=CCN6CC[C@]43[C@@H]65)C2)C1 [VINBLASTINE]
IC50 (HCT-15): 0.0786 µM | IC50 (KYSE-180): 0.00639 µM | IC50 (SK-LU-1): 0.0187 µM | IC50 (MG-63): 0.0142 µM | IC50 (KYSE-140): 0.0449 µM | IC50 (NCI-H2009): 0.0534 µM | IC50 (SW1088): 0.017 µM | IC50 (SNU-387): 0.0114 µM | IC50 (ME-180): 0.00447 µM | IC50 (SAOS-2): 0.0323 µM | IC50 (NCI-H358): 0.037 µM | IC50 (KOSC-2): 0.000698 µM | IC50 (OVCAR-8): 0.00655 µM | IC50 (NCI-H1993): > 0.1 µM | IC50 (NCI-H2342): > 0.1 µM | IC50 (AU565): 0.00345 µM | IC50 (Capan-2): > 0.1 µM | IC50 (TCC-SUP): 0.0236 µM | IC50 (NCI-H1755): 0.0194 µM | IC50 (T98G): 0.0114 µM | IC50 (KYSE-450): 0.00965 µM | IC50 (CHL-1): 0.012 µM | IC50 (HT55): > 0.1 µM | IC50 (JEG-3): 0.0125 µM | IC50 (HT-1080): 0.00423 µM | IC50 (COLO-792): 0.0256 µM | IC50 (YKG-1): 0.00553 µM | IC50 (SK-HEP1): 0.0121 µM | IC50 (MFE-280): 0.0361 µM | IC50 (CAL-62): 0.0101 µM | IC50 (MKN-1): 0.0101 µM | IC50 (A673): 0.00688 µM | IC50 (OAW-28): 0.0407 µM | IC50 (Huh-7): 0.0877 µM | IC50 (MKN-28): 0.0027 µM | IC50 (NCI-H2170): 0.0334 µM | IC50 (EW-22): 0.0293 µM | IC50 (P12-Ichikawa): 0.0017 µM | IC50 (KP-4): 0.00237 µM | IC50 (OVCAR-3): 0.0469 µM | IC50 (HT-3): 0.0371 µM | IC50 (UMUC3): 0.00511 µM | IC50 (MKN-45): 0.0484 µM | IC50 (SW1783): 0.0855 µM | IC50 (KYSE-270): 0.00963 µM | IC50 (647-V): 0.023 µM | IC50 (NCI-H596): > 0.1 µM | IC50 (BFTC-909): 0.00753 µM | IC50 (SW1417): > 0.1 µM | IC50 (RT-112): 0.00271 µM | IC50 (NCI-H1563): 0.0215 µM

Cc1ccc(NC(=O)c2cccc(C(C)(C)C#N)c2)cc1Nc1ccc2ncn(C)c(=O)c2c1
IC50 (COR-L279): > 4 µM | IC50 (LU-165): > 4 µM | IC50 (TUR): > 4 µM | IC50 (SU-DHL-1): 3.53 µM | IC50 (EVSA-T): > 4 µM | IC50 (NCI-H2196): > 4 µM | IC50 (SIG-M5): 0.00945 µM | IC50 (NCI-H64): > 4 µM | IC50 (SIMA): > 4 µM | IC50 (NB1): > 4 µM | IC50 (EW-22): > 4 µM | IC50 (MONO-MAC-6): > 4 µM | IC50 (TE-441-T): 2.81 µM | IC50 (SCC-3): > 4 µM

C[C@]1(c2nc3c(C(N)=O)cccc3[nH]2)CCCN1 [VELIPARIB]
IC50 (HCT-15): > 5 µM | IC50 (KYSE-180): > 5 µM | IC50 (SK-LU-1): > 5 µM | IC50 (MG-63): > 5 µM | IC50 (KYSE-140): > 5 µM | IC50 (NCI-H2009): > 5 µM | IC50 (SW1088): > 5 µM | IC50 (SNU-387): > 5 µM | IC50 (ME-180): > 5 µM | IC50 (SAOS-2): > 5 µM | IC50 (NCI-H358): > 5 µM | IC50 (KOSC-2): > 5 µM | IC50 (OVCAR-8): > 5 µM | IC50 (NCI-H1993): > 5 µM | IC50 (NCI-H2342): > 5 µM | IC50 (AU565): > 5 µM | IC50 (Capan-2): > 5 µM | IC50 (TCC-SUP): > 5 µM | IC50 (NCI-H1755): > 5 µM | IC50 (T98G): > 5 µM | IC50 (KYSE-450): > 5 µM | IC50 (CHL-1): > 5 µM | IC50 (HT55): > 5 µM | IC50 (JEG-3): > 5 µM | IC50 (HT-1080): > 5 µM | IC50 (COLO-792): > 5 µM | IC50 (YKG-1): > 5 µM | IC50 (SK-HEP1): > 5 µM | IC50 (MFE-280): > 5 µM | IC50 (CAL-62): > 5 µM | IC50 (MKN-1): > 5 µM | IC50 (A673): > 5 µM | IC50 (OAW-28): > 5 µM | IC50 (Huh-7): > 5 µM | IC50 (MKN-28): > 5 µM | IC50 (NCI-H2170): > 5 µM | IC50 (EW-22): > 5 µM | IC50 (P12-Ichikawa): > 5 µM | IC50 (KP-4): > 5 µM | IC50 (OVCAR-3): > 5 µM | IC50 (HT-3): > 5 µM | IC50 (UMUC3): > 5 µM | IC50 (MKN-45): > 5 µM | IC50 (SW1783): > 5 µM | IC50 (KYSE-270): > 5 µM | IC50 (647-V): > 5 µM | IC50 (NCI-H596): > 5 µM | IC50 (BFTC-909): > 5 µM | IC50 (SW1417): > 5 µM | IC50 (RT-112): > 5 µM | IC50 (NCI-H1563): > 5 µM
